# From article PMC10574562 (Molecules, 2023)
# Entries after “also recorded” stand apart in the source; their conditions may differ.
# Assays:
# [1] = DPPH radical scavenging assay; details: 25 µM analogue, 100 µM DPPH, MeOH, 30 min incubation
# Description: A DPPH assay was carried out after 30 min of incubation with EDA 1 and its analogues in reported conditions to determine their radical scavenging ability.
# The DPPH free radical scavenging activity of EDA analogues was determined using a previously described method. Appropriate aliquots of putative antioxidants 1–13c were mixed with DPPH in methanol (25 µM EDA analogue, 100 µM DPPH, final concentration); the reaction mixtures were shaken and then incubated for 30 min in the dark. Their absorbances, and the absorbance of a DPPH solution as a negative control, were then measured at 517 nm with a BioTek SynergyHT MicroPlate Reader spectrophotometer (Marshall Scientific, Hampton, NH, USA) against methanol as blank. The scavenging percentage of each EDA analogue was calculated according to the following equation:DPPH radical scavenging (%) = [(Acontrol—Asample)/Acontrol] × 100,(1) where Acontrol is the control absorbance obtained by adding a methanol aliquot equal to the EDA analogue solution volume added to the methanolic DPPH solution and Asample is the absorbance of each test solution after 30 min incubation. All experiments were repeated at least three times, and measurements were run in triplicate.
# [2] = Determination of distribution coefficient LogD7.4 (1-octanol/PBS); assay type: physicochemical; details: 1-octanol/PBS pH 7.4; ± SD; read-out: Log D7.4
# Description: (§1) We experimentally confirmed their predicted poor to medium–good permeability profile by measuring their LogD at physiological pH through a known procedure, and by determining their percentage bound to model lipid bilayers after incubation, as a measure of their affinity for cell-membrane-like liposomes. Results are shown in Table 2 (LogD7.4, column 2; interaction with liposomes at 20 °C and 37 °C, columns 3 and 4, respectively).
# LogD7.4 values were determined by slightly modifying a reported procedure. Namely, an 80 mM solution of each selected EDA analogue in DMSO was diluted in 1-octanol at a final 800 μM concentration. UV–vis spectra were acquired to determine λmax and the necessary dilutions to obtain absorption values for each tested analogue; between 0.5 and 1. 5 mL of each solution were placed in 15 mL conical centrifuge tubes, PBS was added (5 mL, pH 7.4) and the biphasic system was vigorously mixed using a vortex mixer (VELP Scientifica, Usmate Velate, MB, Italy) for 4 min. After centrifugation (2000× g, 30 min), the 1-octanol phase absorption was measured at each compound’ λmax; the procedure was repeated to acquire data in triplicate. The distribution coefficient logD7.4 was calculated according to the following equation: LogD7.4 = Log ([C]oct/[C]PBS) = Log (Af/Ai − Af)(2) where Ai is the pre-extraction measured absorbance in 1-octanol and Af is the post-extraction final measured absorbance in 1-octanol.
# [3] = Interaction with liposome cell membrane models; assay type: in vitro ADME
# Description: as §1
# EDA analogues dissolved in MeOH (0.1 mL) were added to 0.9 mL of large unilamellar phosphatidylcholine vesicles (PC LUVs) in PBS (3 mM lipid final concentration; 0.6 mM EDA analogue final concentration) and incubated at 37 °C for 20 min. Then, any remaining free EDA analogue was separated from liposomes by size-exclusion chromatography.
# A disposable syringe (2.5 mL) packed with hydrated Sephadex G-50 resin was placed in a 15 mL plastic test tube and preconditioned with PBS; then, the liposomal suspension (1 mL) was gently added on the top of the syringe and centrifuged at 500× g for 10 min. The eluate was collected at the bottom of the test tube and lysed by addition of Triton X-100 (final concentration 1% v/v). The concentration of each EDA analogue in each solution was estimated with the Folin–Ciocalteu assay. Namely, 50% Folin–Ciocalteu reagent (150 μL) was added to test samples (50 μL) into a 96-well microplate and shaken. After 10 min, a 7.5% sodium carbonate solution (0.1 mL) was added; the mixtures were incubated in the dark for 1 h at rt; and, finally, the absorbance was measured at 765 nm on a BioTek SynergyHT MicroPlate Reader spectrophotometer (Marshall Scientific, Hampton, NH, USA) using an appropriate blank. Reference calibration curves were plotted for every sample. The ratio (%) of the drug incorporated into the lipid bilayer was then calculated according to the following equation:% ratio of incorporated antioxidant = 100 × [incorporated amount]/[added amount](3)
# [4] = tested on: Cu-induced ROS; assay: Cu-induced ROS inhibition; details: ± SD
# Excerpt: Table 2 In vitro profiling for EDA 1 and selected analogues 2b, 2c and 4a. | column: Cu-Induced ROS Inhibition ^c,a
# [5] = tested on: oligodendrocyte progenitor cells (OPCs); assay: MTT reduction assay on purified OPC cultures; assay type: cell-based, mouse; details: 10 μM; for Effect on metabolic activity of OPCs (MTT reduction): 48 h incubation, purified mouse OPCs, vs DMSO controls
# Description: Purified mouse OPCs were grown for 24 h and treated with EDA 1 and analogues 2b–4c (10 μM) for 44 h; then, MTT was added and OPCs were incubated for 4 h.
# Primary cultures of purified OPC (>99%) were obtained from the cerebral hemispheres of newborn CD1 Swiss mice according to the authorization for the care and use of laboratory animals mentioned in Section 4.2.1. OPCs were grown in a defined serum-free Dulbecco’s Modified Eagle Medium (DMEM) without thyroid hormones at 1 × 10^5 cells/cm^2 into poly-L-lysine-coated 96-well microtiter plates for 3 days.
# One day after plating, purified OPCs were incubated with or without EDA analogues (10 µM) in DMSO (0.001% vehicle) for 48 h. MTT reduction to formazan was carried out as previously described. MTT (Sigma-Aldrich, Milan, Italy) was added to the culture medium at a final 0.25 mg/mL concentration during the last 4 h of incubation.
# [6] = Chemical stability in biological media (DPPH assay and TLC); assay type: in vitro ADME; details: PBS and standard medium, 20 min
# Description: We investigated the stability of 4′-ester EDA 2c and N^1-carbamate 4′-ester EDA 4a (respectively, black and grey bars, Figure 5) in biological media, checking both ester and N^1-carbamate stability in 4a both by thin-layer chromatography (TLC) and by checking the DPPH radical scavenging activity of 2c and 4a after incubation.
# Namely, 2c and 4a were incubated in PBS and in standard medium at 20 °C and 37 °C for 20 min; then, DPPH was added and the radical scavenging activity was measured in all media.
# 4′-Ester 2c and N^1-carbamate ester 4a were incubated in PBS and in a standard cell culture medium supplemented with FBS 10% at 20 °C and 37 °C. After 20 min, appropriate aliquots of the solutions were mixed with DPPH in methanol (25 µM, DPPH 100 µM, final concentration) and the DPPH radical scavenging assay was carried out as described above. Assay media after incubation were also monitored by TLC (eluent mixture: 1:1 cyclohexane/AcOEt).
# [7] = tested on: oligodendrocyte progenitor cells (OPCs); assay: MTT reduction assay on purified OPC cultures; assay type: cell-based, mouse; details: lower dosages than 10 μM (not shown)
logD [2],"Affinity for a Model Lipid Bilayer, % ratio of liposome-bound EDA analogue ([3]; 20 °C)","Affinity for a Model Lipid Bilayer, % ratio of liposome-bound EDA analogue ([3]; 37 °C)",IC50 [4],Structure (SMILES),DPPH radical scavenging/antioxidant activity [1],Effect on metabolic activity of OPCs (MTT reduction) [5],further results
-0.74 ± 0.19,38 ± 4%,45 ± 2%,38 ± 5 µM,CC1=NN(c2ccc(C(=O)O)cc2)C(=O)C1 [Compound 2b],significantly more potent than EDA 1; also recorded: significantly higher antioxidant activity than parent EDA 1,,
,,,,CC1=NN(c2ccc(CN=[N+]=[N-])cc2)C(=O)C1 [Compound 2h],comparable antioxidant activity to EDA 1,did not stimulate OPC development compared to DMSO controls; also recorded: lack of activity on OPCs,
1 ± 0.1,52 ± 2%,71 ± 2%,53 ± 7 µM,"COC(=O)c1ccc(N2N=C(C)CC2=O)cc1 [Compound 2c, Methyl 4-(3-methyl-5-oxo-4,5-dihydro-1H-pyrazol-1-yl)benzoate]",comparable antioxidant activity to EDA 1,stimulated OPC metabolism comparably to EDA 1; also recorded: comparable stimulation of OPC metabolism,DPPH radical scavenging activity after incubation in biological media ([6]; 20 °C and 37 °C): expected radical scavenging activity; Stability in biological media by TLC ([6]; 20 °C and 37 °C): stability in biological media was confirmed
,,,,CC1=NN(c2ccc(CO)cc2)C(=O)C1 [Compound 2g],comparable antioxidant activity to EDA 1,,
,,,,CC1=NN(c2ccc(C(=O)NCCCCCCN=[N+]=[N-])cc2)C(=O)C1 [Compound 2e],,did not stimulate OPC development compared to DMSO controls; also recorded: lack of activity on OPCs,
,,,,CC1=NN(c2ccc(C(=O)NCc3ccc(C4(C(F)(F)F)N=N4)cc3)cc2)C(=O)C1 [Compound 2f],,lack of activity on OPCs,Cytotoxicity on OPCs in MTT assay [5]: cytotoxic at this concentration; OPC activity in MTT assay at lower dosages [7]: inactive at lower dosages
1.1 ± 0.1,37 ± 3%,53 ± 2%,14 ± 2 µM,"CC1=NN(c2ccccc2)C(=O)C1 [Compound 1, edaravone, reference compound]",,,
,,,,O=C1CC(COCc2ccccc2)=NN1c1ccccc1 [Compound 3b],comparable antioxidant activity to EDA 1,,
2.3 ± 0.4,88 ± 6%,77 ± 4%,65 ± 6 µM,"COC(=O)c1ccc(-n2c(=O)cc(C)n2C(=O)OC(C)(C)C)cc1 [Compound 4a, Tert-butyl 2-(4-(methoxycarbonyl)phenyl)-5-methyl-3-oxo-2,3-dihydro-1H-pyrazole-1-carboxylate]",,stimulated OPC metabolism comparably to EDA 1; also recorded: comparable stimulation of OPC metabolism,DPPH radical scavenging activity after incubation in biological media ([6]; 20 °C): did not scavenge DPPH; Stability in biological media by TLC ([6]; 20 °C): stability was confirmed by TLC; DPPH radical scavenging activity after incubation in biological media ([6]; 37 °C): significant antioxidant activity was detected; Stability in biological media by TLC (N^1-carbamate) ([6]; 37 °C): N^1-carbamate hydrolysis and 2c formation; also recorded: fully removed
,,,,CC1=NN(c2ccc(C(=O)NCCN=[N+]=[N-])cc2)C(=O)C1 [Compound 2d],comparable antioxidant activity to EDA 1,did not stimulate OPC development compared to DMSO controls; also recorded: lack of activity on OPCs,
,,,,CCC1=NN(c2ccccc2)C(=O)C1 [Compound 3a],comparable antioxidant activity to EDA 1,,Cytotoxicity on OPCs in MTT assay [5]: cytotoxic at this concentration; OPC activity in MTT assay at lower dosages [7]: inactive at lower dosages
